Where “and” joins values, the source holds several entries; their conditions need not be identical. Equal values may be shown once.
Tests used:
[1] = tested on: MIN6 cell masses (spheroids); experiment: Fluorescent imaging of tumor cell masses (spheroids) of MIN6 cells with mixed fluorescent glucose derivative solutions; format: cell-based, mouse; details: 100 μM CDG+100 μM 2-NBDLG+20 μM 2-TRLG mixed solution, 3 minutes, 6 minutes after start of washout, culture day 17
Description: A fluorescent mixed solution containing 100 μM CDG, 100 μM 2-NBDLG, and 20 μM 2-TRLG (CDG/2-NBDLG/2-TRLG) was administered at 37° C. for 3 minutes to MIN6 cell masses (spheroids) at culture day 17, and fluorescent imaging was conducted.
10 μL of a culture solution containing MIN6 cells suspended at a density of 6×10^4 cells/mL was added dropwise onto each glass cover slip, and then, the glass cover slip was left standing for 40 minutes in an incubator for fixation to the glass surface. The cells were cultured by the addition of 3 mL of a culture solution (600 cells/slip). Spheroids were formed by continuing the culture for 15 to 17 days. Half the amount of the culture solution was replaced with a fresh one once every three days.
The MIN6 cells used were cells kindly provided by professor Junichi Miyazaki (Osaka University) and subcultured 6 to 10 times. Half the amount of the culture solution was replaced with a fresh one once every two days.
13.4 g of high glucose-containing Dulbecco's modified Eagle's Medium (DMEM-HG) (Sigma-Aldrich, #D5648), 3.4 g of NaHCO3, and 5 μL of 2-mercaptoethanol were dissolved in 1 L of ultrapure water, and the pH of the solution was adjusted to 7.30 to 7.35 in a CO2 incubator of 37° C. The culture solution was supplemented with fetal bovine serum (Hyclone, Cat# SH30070.03) at a final concentration of 10% and penicillin-streptomycin at a final concentration of 0.5%.
The whole amount of the 0.5 mg CDG vial was recovered using 0.73 mL in total of 10% DMSO and dissolved by addition to 7.0 ml of a KRB solution for image acquisition according to the method described in Non Patent Literature 2.
The whole amount of one 0.5 mg 2-NBDLG vial was dissolved in 7.3 mL of a KRB solution for image acquisition.
The CDG solution and the 2-NBDLG solution were mixed at a ratio of 1:1. The whole amount of the 0.2 mg 2-TRLG vial was recovered using 130 μL in total of DMSO and mixed with 13 ml of the CDG+2-NBDLG mixed solution according to the method described in Non Patent Literature 2 (final concentration: 100 μM CDG+100 μM 2-NBDLG+20 μM 2-TRLG mixed solution). […]
The glass cover slip with the cultured MIN6 cells was transferred into the KRB solution for image acquisition in a perfusion chamber loaded on a stage of a fluorescence microscope, followed by measurement. […]
The KRB solution for image acquisition was warmed in advance in an aluminum syringe heater and supplied to the perfusion chamber through hydrostatic pressure. […] Immediately before being introduced to the perfusion chamber, the solution was rewarmed via an inline heater so that the actually measured temperature of the perfusate in an observation region in the chamber was adjusted to 36±1° C. […]

[2] = tested on: neuronal cells of the substantia nigra pars reticulate of the midbrain; experiment: Fluorescent imaging of acutely isolated normal neuronal cells; format: cell-based, mouse; details: 3 minutes, 8 minutes after start of washout
Description: The whole amount of the 0.5 mg CLG vial was recovered using 0.73 mL in total of 10% DMSO and dissolved (100 μM) by addition to 14.79 ml of a HEPES solution for image acquisition according to the method described in Non Patent Literature 2. […]
150 mM NaCl, 5 mM KCl, 1 mM MgCl2, 2 mM CaCl2, and 10 mM HEPES (the pH of the solution was adjusted to 7.4 with a 1 M tris(2-amino-2-hydroxymethyl-1,3-propanediol) solution). The concentration of glucose was set to 10 mM. 0.1 mM carbenoxolone (Sigma-Aldrich, #C4790) was added thereto for the purpose of inhibiting the entrance and exit of fluorescently labeled glucose by way of gap junction/hemichannel. This HEPES solution for image acquisition was used for preparing the CLG solution and the mixed solution with the additional fluorescent sugar derivative.
Neuronal cells […] to the method described in the previous reports of the inventors (WO2010/16587 (Patent Literature 2)) and (WO2012/133688 (Patent Literature 4)) and attached to each glass cover slip coated with poly-L-lysine. Then, the glass cover slip was transferred into the HEPES solution for image acquisition in a perfusion chamber loaded on a stage of a fluorescence microscope, followed by observation.
A silicon plate of 1 mm thickness bored to have a streamline-shaped hole (10 mm wide x 35 mm long) was placed via cover glass onto an aluminum heating control platform (Warner Instruments) having a round hole (diameter: 18 mm) for an objective lens at the bottom, and allowed to be in close contact with the cover glass.
The HEPES solution for image acquisition was warmed in advance in an aluminum syringe heater and supplied to the perfusion chamber through hydrostatic pressure. The perfusion rate was adjusted to 1.3±0.2 mL/min using a flow rate adjuster. Immediately before being introduced to the perfusion chamber, the solution was rewarmed via an inline heater so that the actually measured temperature of the perfusate in an observation region in the chamber was adjusted to 32.5±1° C. The CLG/2-TRLG mixed solution was able to be supplied in the same way as above and was switched with the HEPES solution for image acquisition using an electromagnetic valve capable of controlling the opening and closing of the channel. The solution was removed using a vacuum pump capable of controlling suction pressure.
The fluorescence microscope used was NIKON ECLIPS-Ti, and images were acquired with a CCD camera Retiga 2000R.
CLG and 2-TRLG were each detected using the following filter cassette.
Excitation 360/40 nm, Dichroic mirror 400 nm, Emission 460/50 nm.
Excitation 567/15 nm, Dichroic mirror 593 nm, Emission 593 nm Long pass.
The objective lens used in this method was ×20 dry lens (Nikon Plan S Fluor). The images were acquired at 1600×1200 pixels. […]

[3] = tested on: mouse insulinoma cells (MIN6); experiment: Increase in fluorescence intensity (uptake) after administration of fluorescent glucose derivative to MIN6 cells, influence of cytochalasin B (CB) or phloretin (PHT), fluorescence microplate reader; format: cell-based; details: 2-NBDG 200 μM, 5 minutes; CB 10 μM; MIN6 13 days of culture; average, two independent experiments
Description: Increase in fluorescence intensity caused by the administration of CDG, and the influence of a glucose transporter (GLUT) inhibitor CB thereon were confirmed by targeting MIN6 cells.
A 96-well clear-bottom plate having wells of 8 rows (A to H) and 12 columns (1 to 12) (μClear-PLATE, Greiner Bio-One, BLACK) was used in measurement. A culture solution containing MIN6 cells suspended at a density of 60×10^4 cells/mL was added dropwise at 10 μL/well to the central portion of the well, and then, the plate was left standing for 40 minutes in an incubator for fixation. The cells were cultured by the addition of a culture solution at 200 μL/well (6000 cells/well). For layout, the cells were seeded to wells B to H on the third column and wells A to G on the fifth column. Medium replacement was performed by replacing half the amount with a fresh one once every two days at 0 to 4 DIV (days in vitro) and every day at 5 DIV or later. […]
CDG and 2-NBDG were each independently administered to the wells on the third and fifth columns using an 8-channel pipette such that these derivatives were alternately placed on the same plate. Before the administration, the autofluorescence of each well was measured in advance using a fluorescence microplate reader (Flex Station, Molecular Devices, LLC). […] The measurement was conducted at Bottom Read, Averaging 3, and Photomultiplier sensitivity high. […]

[4] = tested on: mouse insulinoma cells (MIN6); experiment: as above; format: cell-based; details: 2-NBDG 200 μM, 5 minutes; PHT 150 μM; MIN6 13 days of culture; average, two independent experiments
[5] = Fluorescence spectrum (excitation and fluorescence maxima); format: physicochemical
From the text: The fluorescence spectra of CDG synthesized in (1) and QDG synthesized in (2) were compared with the fluorescence spectrum of 2-NBDLG (manufactured by Peptide Institute, Inc.).
The numeric values described above the graph denote the fluorescence maximum of CDG and QDG, respectively. It is evident that the fluorescence maximum was largely shifted to shorter wavelength as compared with the fluorescence maximum of 2-NBDLG present around 550 nm.

With “2-Texas Red-2-amino-2-deoxy-L-glucose [Compound 2-TRLG, reference compound]” the “uptake in the central portion of the spheroid” value [1] was “strong uptake”, the “uptake into normal neuronal cells” value ([2]; 100 μM CDG+20 μM 2-TRLG mixed solution, 14-day-old mouse) was “not taken into the normal neuronal cells” and the “uptake into normal neuronal cells” value ([2]; 100 μM CLG+20 μM 2-TRLG mixed solution, 21-day-old mouse) was “not taken into the normal neuronal cells”.

For `O=[N+]([O-])c1ccc(N[C@H]2C(O)O[C@H](CO)[C@@H](O)[C@@H]2O)c2nonc12` (stereo partly drawn) [Compound 2-NBDG, 2-[N-(7-nitrobenz-2-oxa-1,3-diazol-4-yl)amino]-2-deoxy-D-glucose, reference compound], the “fluorescence intensity in the presence of CB relative to the absence of CB” value [3] was 30.8% and 36.4% and the “fluorescence intensity in the presence of PHT relative to the absence of PHT” value [4] was 18.6% and 15.7%.

In the case of `O=[N+]([O-])c1ccc(NC2C(O)OC(CO)[C@H](O)C2O)c2nonc12` (stereo partly drawn) [Compound 2-NBDLG, 2-[N-(7-nitrobenz-2-oxa-1,3-diazol-4-yl)amino]-2-deoxy-L-glucose, reference compound], the “uptake into cells of MIN6 spheroids, intracellular localization” value [1] is reported as “strongly taken into the cytoplasm” and the “maximum fluorescence wavelength (Em max)” value [5] is reported as “around 550 nm”.
